Laboratory results: patent US12343326B2, “Psychoactive medicines and their use for treating psychiatric and neurological conditions and disorders” (Transcend Therapeutics, Inc., priority 2021, dated 2025)

How the values were obtained:
Assay in all cases: β-arrestin based GPCR screen (PathHunter / GPCRmax), antagonist mode
168 GPCRs [1] = target: 168 GPCRs (Homo sapiens, UniProt O00574)
168 GPCRs [2] = target: 168 GPCRs (Homo sapiens, UniProt O43193); settings: MLNR
168 GPCRs [3] = target: T1, 168 GPCRs (Homo sapiens, UniProt P08173); settings: CHRM4, Antagonist
T1 sequence (P08173 1-479): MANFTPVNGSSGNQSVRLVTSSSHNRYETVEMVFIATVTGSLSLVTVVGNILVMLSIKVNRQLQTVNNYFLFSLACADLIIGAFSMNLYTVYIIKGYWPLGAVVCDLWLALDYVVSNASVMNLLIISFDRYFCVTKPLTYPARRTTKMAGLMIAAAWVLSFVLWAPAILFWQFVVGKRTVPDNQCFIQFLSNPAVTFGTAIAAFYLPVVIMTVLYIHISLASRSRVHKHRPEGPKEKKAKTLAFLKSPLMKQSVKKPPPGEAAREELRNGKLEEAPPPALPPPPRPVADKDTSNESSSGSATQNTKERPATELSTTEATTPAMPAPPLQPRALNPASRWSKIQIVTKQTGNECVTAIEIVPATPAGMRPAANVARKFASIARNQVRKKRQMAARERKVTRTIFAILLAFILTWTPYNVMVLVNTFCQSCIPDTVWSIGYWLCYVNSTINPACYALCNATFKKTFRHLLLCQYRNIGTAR

168 GPCRs [4] = target: 168 GPCRs (Homo sapiens, UniProt P08913); settings: ADRA2A, Antagonist
168 GPCRs [5] = target: T2, 168 GPCRs (Homo sapiens, UniProt P0DMS8); settings: ADORA3, Antagonist
T2 sequence (P0DMS8 1-318): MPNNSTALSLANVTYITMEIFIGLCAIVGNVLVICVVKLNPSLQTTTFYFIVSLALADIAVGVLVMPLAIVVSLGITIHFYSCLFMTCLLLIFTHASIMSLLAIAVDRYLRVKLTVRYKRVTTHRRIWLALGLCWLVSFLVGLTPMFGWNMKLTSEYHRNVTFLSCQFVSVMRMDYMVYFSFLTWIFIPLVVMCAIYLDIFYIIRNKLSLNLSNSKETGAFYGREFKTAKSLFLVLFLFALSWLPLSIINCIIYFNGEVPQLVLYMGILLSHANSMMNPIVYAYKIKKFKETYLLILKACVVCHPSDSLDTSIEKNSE

168 GPCRs [6] = target: 168 GPCRs (Homo sapiens, UniProt P21554)
168 GPCRs [7] = target: 168 GPCRs (Homo sapiens, UniProt P28566); settings: HTR1E
168 GPCRs [8] = target: T3, 168 GPCRs (Homo sapiens, UniProt P32248); settings: CCR7, Antagonist
T3 sequence (P32248 25-378): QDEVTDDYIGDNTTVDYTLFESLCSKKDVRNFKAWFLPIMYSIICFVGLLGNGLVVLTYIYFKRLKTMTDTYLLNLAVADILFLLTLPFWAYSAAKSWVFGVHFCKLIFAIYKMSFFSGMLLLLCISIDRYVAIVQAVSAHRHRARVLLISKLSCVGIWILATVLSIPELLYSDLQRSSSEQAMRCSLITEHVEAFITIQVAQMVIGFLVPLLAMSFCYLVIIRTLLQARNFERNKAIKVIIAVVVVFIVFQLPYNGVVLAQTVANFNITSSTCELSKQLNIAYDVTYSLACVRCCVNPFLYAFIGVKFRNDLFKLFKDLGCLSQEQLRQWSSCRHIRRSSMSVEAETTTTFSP

168 GPCRs [9] = target: 168 GPCRs (Homo sapiens, UniProt P41587)
168 GPCRs [10] = target: 168 GPCRs (Homo sapiens, UniProt P41597); settings: CCR2, Antagonist
168 GPCRs [11] = target: 168 GPCRs (Homo sapiens, UniProt P43088); settings: PTGFR
168 GPCRs [12] = target: 168 GPCRs (Homo sapiens, UniProt P43115)
168 GPCRs [13] = target: 168 GPCRs (Homo sapiens, UniProt P48546); settings: GIPR
168 GPCRs [14] = target: 168 GPCRs (Homo sapiens, UniProt P49190)
168 GPCRs (Homo sapiens, UniProt P49190), sequence (P49190 25-550): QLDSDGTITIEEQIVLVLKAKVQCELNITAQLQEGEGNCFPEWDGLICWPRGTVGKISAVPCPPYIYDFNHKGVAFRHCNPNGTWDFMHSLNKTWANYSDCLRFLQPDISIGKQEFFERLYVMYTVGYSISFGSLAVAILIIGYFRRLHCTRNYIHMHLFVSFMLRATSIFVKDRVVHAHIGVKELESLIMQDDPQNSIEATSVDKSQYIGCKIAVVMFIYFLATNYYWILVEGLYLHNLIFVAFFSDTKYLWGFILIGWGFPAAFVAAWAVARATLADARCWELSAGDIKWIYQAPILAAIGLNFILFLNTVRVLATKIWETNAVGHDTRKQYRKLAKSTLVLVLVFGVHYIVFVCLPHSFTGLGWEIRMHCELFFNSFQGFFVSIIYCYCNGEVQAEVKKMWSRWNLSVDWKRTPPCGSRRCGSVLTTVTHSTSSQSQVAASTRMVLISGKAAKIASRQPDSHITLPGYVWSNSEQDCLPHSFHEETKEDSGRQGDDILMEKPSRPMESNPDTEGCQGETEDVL

168 GPCRs (Homo sapiens, UniProt O00574), sequence (O00574 whole entry): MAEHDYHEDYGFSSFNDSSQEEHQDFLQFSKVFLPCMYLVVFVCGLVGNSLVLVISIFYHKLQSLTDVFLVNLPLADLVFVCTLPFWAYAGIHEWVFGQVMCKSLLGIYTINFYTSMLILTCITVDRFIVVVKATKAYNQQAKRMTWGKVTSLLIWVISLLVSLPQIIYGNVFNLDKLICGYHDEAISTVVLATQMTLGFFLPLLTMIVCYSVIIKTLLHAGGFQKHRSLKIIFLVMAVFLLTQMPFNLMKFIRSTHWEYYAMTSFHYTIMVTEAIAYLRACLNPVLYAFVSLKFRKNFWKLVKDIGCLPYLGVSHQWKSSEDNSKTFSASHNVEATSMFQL
168 GPCRs (Homo sapiens, UniProt P48546), sequence (P48546 22-466): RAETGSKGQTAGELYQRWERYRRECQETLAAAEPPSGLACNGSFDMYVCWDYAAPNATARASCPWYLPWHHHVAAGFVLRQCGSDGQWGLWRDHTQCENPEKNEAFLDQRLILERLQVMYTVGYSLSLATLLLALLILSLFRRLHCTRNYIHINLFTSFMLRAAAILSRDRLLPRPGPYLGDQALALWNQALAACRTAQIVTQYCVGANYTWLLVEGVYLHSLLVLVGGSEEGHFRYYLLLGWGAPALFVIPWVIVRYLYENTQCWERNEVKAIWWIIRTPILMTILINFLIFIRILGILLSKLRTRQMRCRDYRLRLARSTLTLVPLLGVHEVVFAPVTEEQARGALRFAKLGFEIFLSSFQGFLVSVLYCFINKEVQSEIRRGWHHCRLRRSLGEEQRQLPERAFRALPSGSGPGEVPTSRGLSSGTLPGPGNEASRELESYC
168 GPCRs (Homo sapiens, UniProt P43088), sequence (P43088 whole entry): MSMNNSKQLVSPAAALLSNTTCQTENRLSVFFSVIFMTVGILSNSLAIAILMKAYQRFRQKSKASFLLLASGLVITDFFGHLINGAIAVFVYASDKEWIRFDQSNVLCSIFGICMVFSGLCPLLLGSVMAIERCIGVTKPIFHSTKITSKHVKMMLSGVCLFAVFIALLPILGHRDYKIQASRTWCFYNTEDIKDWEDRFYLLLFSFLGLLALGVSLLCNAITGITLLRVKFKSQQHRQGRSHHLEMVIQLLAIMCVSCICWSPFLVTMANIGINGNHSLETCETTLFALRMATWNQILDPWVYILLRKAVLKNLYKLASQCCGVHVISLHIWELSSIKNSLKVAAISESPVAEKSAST
168 GPCRs (Homo sapiens, UniProt O43193), sequence (O43193 whole entry): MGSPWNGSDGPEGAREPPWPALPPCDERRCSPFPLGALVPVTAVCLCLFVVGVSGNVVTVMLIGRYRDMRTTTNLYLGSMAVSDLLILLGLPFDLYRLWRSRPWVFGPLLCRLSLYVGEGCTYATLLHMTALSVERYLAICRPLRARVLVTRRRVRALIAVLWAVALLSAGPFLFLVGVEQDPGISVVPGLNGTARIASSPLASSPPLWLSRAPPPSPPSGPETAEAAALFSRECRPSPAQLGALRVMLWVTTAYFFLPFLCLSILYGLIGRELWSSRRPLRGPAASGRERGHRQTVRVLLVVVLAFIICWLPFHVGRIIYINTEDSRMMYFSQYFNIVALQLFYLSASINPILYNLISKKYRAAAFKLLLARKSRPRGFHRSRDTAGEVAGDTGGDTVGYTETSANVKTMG
168 GPCRs (Homo sapiens, UniProt P28566), sequence (P28566 whole entry): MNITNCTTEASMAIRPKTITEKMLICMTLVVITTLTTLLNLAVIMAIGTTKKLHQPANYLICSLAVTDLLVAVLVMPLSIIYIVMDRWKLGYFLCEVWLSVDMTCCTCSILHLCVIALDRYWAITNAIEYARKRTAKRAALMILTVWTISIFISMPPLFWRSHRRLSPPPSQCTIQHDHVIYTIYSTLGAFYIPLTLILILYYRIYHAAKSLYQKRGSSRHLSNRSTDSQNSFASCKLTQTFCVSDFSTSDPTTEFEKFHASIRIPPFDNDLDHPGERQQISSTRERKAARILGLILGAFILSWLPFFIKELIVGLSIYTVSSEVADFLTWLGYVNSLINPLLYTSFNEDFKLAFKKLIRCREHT
168 GPCRs (Homo sapiens, UniProt P41597), sequence (P41597 whole entry): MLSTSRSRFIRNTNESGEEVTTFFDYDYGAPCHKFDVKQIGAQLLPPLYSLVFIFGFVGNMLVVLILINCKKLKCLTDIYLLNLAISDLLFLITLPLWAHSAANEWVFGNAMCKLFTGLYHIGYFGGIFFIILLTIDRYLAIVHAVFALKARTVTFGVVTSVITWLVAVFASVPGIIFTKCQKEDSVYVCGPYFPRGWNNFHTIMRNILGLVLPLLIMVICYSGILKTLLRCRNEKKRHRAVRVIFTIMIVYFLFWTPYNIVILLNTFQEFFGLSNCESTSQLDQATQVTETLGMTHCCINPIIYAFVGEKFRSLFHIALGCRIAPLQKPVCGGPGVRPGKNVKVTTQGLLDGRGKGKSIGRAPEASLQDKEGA
168 GPCRs (Homo sapiens, UniProt P41587), sequence (P41587 24-438): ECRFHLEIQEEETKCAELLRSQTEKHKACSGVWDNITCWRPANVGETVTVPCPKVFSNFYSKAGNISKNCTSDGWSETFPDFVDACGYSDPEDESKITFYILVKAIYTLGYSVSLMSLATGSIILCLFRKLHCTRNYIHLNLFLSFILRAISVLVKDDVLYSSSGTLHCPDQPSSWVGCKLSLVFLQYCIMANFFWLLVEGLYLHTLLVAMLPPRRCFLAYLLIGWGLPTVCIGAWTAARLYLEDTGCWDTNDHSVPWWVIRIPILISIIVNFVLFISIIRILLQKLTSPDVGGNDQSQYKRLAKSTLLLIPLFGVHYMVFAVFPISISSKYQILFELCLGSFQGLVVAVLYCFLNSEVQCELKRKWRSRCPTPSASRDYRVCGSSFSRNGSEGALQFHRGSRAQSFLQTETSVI
168 GPCRs (Homo sapiens, UniProt P21554), sequence (P21554 whole entry): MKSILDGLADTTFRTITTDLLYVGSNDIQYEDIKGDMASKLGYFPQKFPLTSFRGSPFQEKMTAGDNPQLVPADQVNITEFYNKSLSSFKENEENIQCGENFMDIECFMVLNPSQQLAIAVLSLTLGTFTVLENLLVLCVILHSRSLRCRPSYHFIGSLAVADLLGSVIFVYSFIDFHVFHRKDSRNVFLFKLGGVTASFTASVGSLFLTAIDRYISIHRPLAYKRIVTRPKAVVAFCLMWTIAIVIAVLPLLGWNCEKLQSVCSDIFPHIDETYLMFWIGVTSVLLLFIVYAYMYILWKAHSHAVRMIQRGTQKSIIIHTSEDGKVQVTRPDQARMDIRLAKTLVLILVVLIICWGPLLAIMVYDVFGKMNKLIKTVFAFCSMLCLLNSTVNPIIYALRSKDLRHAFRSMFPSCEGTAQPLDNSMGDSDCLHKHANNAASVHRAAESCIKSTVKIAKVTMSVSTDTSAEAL
168 GPCRs (Homo sapiens, UniProt P08913), sequence (P08913 whole entry): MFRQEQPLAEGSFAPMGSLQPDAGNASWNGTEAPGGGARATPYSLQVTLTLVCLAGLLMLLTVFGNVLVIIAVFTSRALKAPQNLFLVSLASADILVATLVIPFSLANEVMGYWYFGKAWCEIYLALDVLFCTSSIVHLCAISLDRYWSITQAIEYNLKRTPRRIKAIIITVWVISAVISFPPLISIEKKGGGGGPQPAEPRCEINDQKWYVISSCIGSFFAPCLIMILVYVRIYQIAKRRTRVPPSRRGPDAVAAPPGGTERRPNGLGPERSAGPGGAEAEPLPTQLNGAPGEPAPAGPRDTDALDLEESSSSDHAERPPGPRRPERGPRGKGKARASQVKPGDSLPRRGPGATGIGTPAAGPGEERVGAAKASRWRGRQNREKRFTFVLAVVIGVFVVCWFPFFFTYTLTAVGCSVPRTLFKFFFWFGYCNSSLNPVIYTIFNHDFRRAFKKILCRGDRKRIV
168 GPCRs (Homo sapiens, UniProt P43115), sequence (P43115 whole entry): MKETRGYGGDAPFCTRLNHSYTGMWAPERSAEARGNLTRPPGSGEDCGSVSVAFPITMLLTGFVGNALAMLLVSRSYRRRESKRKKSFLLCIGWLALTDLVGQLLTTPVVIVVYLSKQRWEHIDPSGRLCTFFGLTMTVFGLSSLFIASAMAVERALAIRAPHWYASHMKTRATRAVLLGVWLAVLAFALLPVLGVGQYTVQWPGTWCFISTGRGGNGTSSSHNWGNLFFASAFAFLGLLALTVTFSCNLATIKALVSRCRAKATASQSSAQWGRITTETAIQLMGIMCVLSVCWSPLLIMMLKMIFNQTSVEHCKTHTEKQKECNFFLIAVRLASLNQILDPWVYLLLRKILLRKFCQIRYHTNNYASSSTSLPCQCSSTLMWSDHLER

`CNC(C)C(=O)c1ccc2c(c1)OCO2` (stereo not shown) [methylone, 3,4-methylenedioxy-N-methylcathinone] was tested, and the activity at 10 µM (168 GPCRs [1]; CXCR6, Antagonist mode, 10 uM) was 12.6%, the activity at 1 µM (168 GPCRs [1]; CXCR6, Antagonist, 1 uM) was 27.2% and the activity at 10 µM (168 GPCRs [2]; Antagonist mode, 10 uM) was 12.3%. For the same compound, the activity at 1 µM (168 GPCRs [2]; Antagonist, 1 uM) was 15.6%, the activity at 1 µM (168 GPCRs [3]; 1 uM) was 10.2% and the activity at 10 µM (168 GPCRs [3]; 10 uM) was 6.7%. The activity at 1 µM (168 GPCRs [4]; 1 uM) was -4.6%, the activity at 10 µM (168 GPCRs [4]; 10 uM) was 1.9% and the activity at 1 µM (168 GPCRs [5]; 1 uM) was 11.3%. It also gave an activity at 10 µM (168 GPCRs [5]; 10 uM) of 7.7%, an activity at 10 µM (168 GPCRs [6]; CNR1, Antagonist mode, 10 uM) of -17.1% and an activity at 1 µM (168 GPCRs [6]; CNR1, Antagonist, 1 uM) of -3.5%. The activity at 10 µM (168 GPCRs [7]; Antagonist mode, 10 uM) was 13.2%, the activity at 1 µM (168 GPCRs [7]; Antagonist, 1 uM) was 7.6% and the activity at 1 µM (168 GPCRs [8]; 1 uM) was -8.3%. The activity at 10 µM (168 GPCRs [8]; 10 uM) was -3.4%, the activity at 10 µM (168 GPCRs [9]; VIPR2, Antagonist mode, 10 uM) was -2.6% and the activity at 1 µM (168 GPCRs [9]; VIPR2, Antagonist, 1 uM) was -1.5%. For the same compound, the activity at 1 µM (168 GPCRs [10]; 1 uM) was 2%, the activity at 10 µM (168 GPCRs [10]; 10 uM) was 4.9% and the activity at 10 µM (168 GPCRs [11]; Antagonist mode, 10 uM) was 0%. It also gave an activity at 1 µM (168 GPCRs [11]; Antagonist, 1 uM) of 0.9%, an activity at 10 µM (168 GPCRs [12]; PTGER3, Antagonist mode, 10 uM) of 5.7% and an activity at 1 µM (168 GPCRs [12]; PTGER3, Antagonist, 1 uM) of -6.2%. For the same compound, the activity at 10 µM (168 GPCRs [13]; Antagonist mode, 10 uM) was -5.1%, the activity at 1 µM (168 GPCRs [13]; Antagonist, 1 uM) was -1% and the activity at 10 µM (168 GPCRs [14]; PTHR2, Antagonist mode, 10 uM) was -0.2%. It also gave an activity at 1 µM (168 GPCRs [14]; PTHR2, Antagonist, 1 uM) of -1%.
